From patent US12226424B2, “Target protein degradation compounds, their anti-tumor use, their intermediates and use of intermediates” (ShanghaiTech University, priority 2018, dated 2025) come the findings set out here.

In assay [1] the test system is MDA-MB-436 cells (PARP-positive). The experiment in a line: Half inhibitory concentration (IC50) on PARP-positive tumor cells, CCK-8, MDA-MB-436. Type of assay: cell-based. Conditions: Homo sapiens, 72 hours, read-out: IC50 (μM)/MDA-MB-436 cell line. As for the experimental part:
PARP-positive cells MDA-MB-436 cells (human breast cancer cells) were purchased from the American Type Culture Collection (ATCC).
The cells used in this present disclosure were cultured in a 37° C. incubator containing 5% CO2. The complete cell culture medium was DMEM medium with 10% fetal bovine serum, and the final concentrations of penicillin and streptomycin were 100 U/mL, respectively. All cells were tested negative for mycoplasma with mycoplasma detection kit before the experiment.
Determination of Half Inhibitory Concentration (IC50) of PROTAD Compounds on Tumor Cells
MDA-MB-436 cells were seeded in 100 μL DMEM complete medium at a density of 3500 cells/well. 100 μL of the inoculated cells were treated with 0.5 μL diluted PROTAD compounds of the present disclosure to be tested at 10 successively decreasing concentrations (starting at the highest concentration of 50 μM; 3-fold serial dilutions). After the cells were treated with the tested drugs for 72 hours, cell viability was determined according to the CCK-8 reagent operating instructions. The negative control was DMSO, and the positive control was a commercial inhibitor. After CCK-8 treatment for 2 h, the value of O.D.450 was measured using a microplate reader.

In assay [2] the test system is K562 cells (BCR-ABL positive). The experiment in a line: Half inhibitory concentration (IC50) on tumor cells, CCK-8, K562. Conditions: Homo sapiens, K562, 48 h, read-out: IC50 (nM)/K562 cell line.
For a further assay, the system named is U937 cells. In words: Proliferation inhibition (IC50) on non-BCR-ABL-positive U937 cells. Conditions: Homo sapiens, U-937, read-out: IC50 (nM)/U937 cell line.
The test system of the next assay is HEK293 cells. The experiment in a line: Proliferation inhibition (IC50) on non-BCR-ABL-positive HEK293 cells. Conditions: Homo sapiens, HEK293, read-out: IC50 (nM)/HEK293 cell line.
Another assay concerns the target BCR-ABL (Homo sapiens, UniProt P00519). In words: Western-blot half-degradation concentration (DC50) / degradation of BCR-ABL in K562 cells. Conditions: read-out: DC50 (nM)/K562 cell line, BCR-ABL protein degradation, 24 hours, Western-blot.

BCR-ABL, sequence (P00519 with tags, fused parts or gaps): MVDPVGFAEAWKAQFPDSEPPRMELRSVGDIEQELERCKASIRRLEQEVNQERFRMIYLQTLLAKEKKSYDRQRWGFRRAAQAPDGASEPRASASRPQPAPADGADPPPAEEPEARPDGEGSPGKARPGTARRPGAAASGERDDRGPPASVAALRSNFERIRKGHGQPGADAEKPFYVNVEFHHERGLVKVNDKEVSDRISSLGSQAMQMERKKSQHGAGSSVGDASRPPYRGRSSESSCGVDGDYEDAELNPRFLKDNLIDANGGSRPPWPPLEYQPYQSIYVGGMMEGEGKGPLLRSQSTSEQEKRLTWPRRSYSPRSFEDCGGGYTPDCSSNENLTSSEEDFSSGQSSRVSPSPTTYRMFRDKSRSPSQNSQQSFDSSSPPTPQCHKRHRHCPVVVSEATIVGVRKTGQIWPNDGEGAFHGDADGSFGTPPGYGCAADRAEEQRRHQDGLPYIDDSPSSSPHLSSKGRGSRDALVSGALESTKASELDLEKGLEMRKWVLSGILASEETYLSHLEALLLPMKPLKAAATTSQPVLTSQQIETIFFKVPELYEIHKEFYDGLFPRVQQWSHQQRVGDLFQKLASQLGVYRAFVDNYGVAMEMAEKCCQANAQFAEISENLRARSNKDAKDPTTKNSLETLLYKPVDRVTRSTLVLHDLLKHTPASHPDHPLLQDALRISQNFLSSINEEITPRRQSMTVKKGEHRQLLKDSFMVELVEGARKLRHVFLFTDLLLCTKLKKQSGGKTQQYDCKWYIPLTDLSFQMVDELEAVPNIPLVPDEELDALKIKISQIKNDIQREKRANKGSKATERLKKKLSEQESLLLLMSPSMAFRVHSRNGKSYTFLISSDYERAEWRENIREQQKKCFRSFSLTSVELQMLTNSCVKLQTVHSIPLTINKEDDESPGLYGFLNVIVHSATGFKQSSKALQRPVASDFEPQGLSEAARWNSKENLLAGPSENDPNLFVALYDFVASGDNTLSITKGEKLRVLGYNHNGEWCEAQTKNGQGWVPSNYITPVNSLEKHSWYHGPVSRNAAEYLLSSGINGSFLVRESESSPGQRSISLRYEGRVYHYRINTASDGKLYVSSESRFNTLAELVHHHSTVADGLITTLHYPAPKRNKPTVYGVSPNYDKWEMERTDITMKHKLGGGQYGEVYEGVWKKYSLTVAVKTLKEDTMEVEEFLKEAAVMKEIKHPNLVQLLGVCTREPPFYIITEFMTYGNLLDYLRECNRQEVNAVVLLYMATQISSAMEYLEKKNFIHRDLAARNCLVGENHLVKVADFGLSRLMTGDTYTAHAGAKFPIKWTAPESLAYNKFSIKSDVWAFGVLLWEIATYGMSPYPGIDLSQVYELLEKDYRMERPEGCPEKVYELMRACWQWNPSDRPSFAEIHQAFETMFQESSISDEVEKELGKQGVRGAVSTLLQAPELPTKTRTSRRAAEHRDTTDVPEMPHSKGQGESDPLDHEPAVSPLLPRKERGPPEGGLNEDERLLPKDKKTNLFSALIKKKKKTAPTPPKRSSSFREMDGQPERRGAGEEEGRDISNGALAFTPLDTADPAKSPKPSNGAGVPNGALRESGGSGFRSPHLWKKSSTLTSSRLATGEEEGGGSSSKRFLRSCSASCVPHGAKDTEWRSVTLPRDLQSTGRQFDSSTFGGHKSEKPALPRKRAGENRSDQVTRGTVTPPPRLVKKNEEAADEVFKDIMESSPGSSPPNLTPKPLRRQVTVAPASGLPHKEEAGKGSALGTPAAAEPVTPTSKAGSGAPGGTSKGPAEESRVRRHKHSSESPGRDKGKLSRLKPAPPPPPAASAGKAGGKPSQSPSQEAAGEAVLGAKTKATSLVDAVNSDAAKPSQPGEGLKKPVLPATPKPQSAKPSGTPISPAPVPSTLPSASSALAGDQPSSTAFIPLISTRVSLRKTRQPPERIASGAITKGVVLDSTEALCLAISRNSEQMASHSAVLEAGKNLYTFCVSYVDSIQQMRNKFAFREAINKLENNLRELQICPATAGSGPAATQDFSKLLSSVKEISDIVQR

Regarding `NC(=O)c1cccc2cn(-c3ccc([C@@H]4CCCNC4)cc3)nc12` [Niraparib, reference compound], the IC50 in assay [1] was determined as 1 µM.

Take `O=C(c1cc(Cc2n[nH]c(=O)c3ccccc23)ccc1F)N1CCN(C(=O)C2CC2)CC1` [Olaparib, reference compound]: the IC50 in assay [1] came to 2.31 µM.

As for `CNCc1ccc(-c2[nH]c3cc(F)cc4c3c2CCNC4=O)cc1` [Rucaparib, reference compound], in assay [1], the IC50 is 1.12 µM.

Turning to `Cc1nc(Nc2ncc(C(=O)Nc3c(C)cccc3Cl)s2)cc(N2CCN(C(=O)C[S+]([O-])c3cccc4c3C(=O)N(C3CCC(=O)NC3=O)C4=O)CC2)n1` (stereo not shown) [SIAIS151109, N-(2-chloro-6-methylphenyl)-2-((6-(4-(2-((2-(2,6-dioxopiperidin-3-yl)-1,3-dioxoisoindolin-4-yl)sulfinyl)acetyl)piperazin-1-yl)-2-methylpyrimidin-4-yl)amino)thiazole-5-carboxamide], the IC50 in assay [2] is 148 nM; in the assay with U937 cells it was above 10000 nM; with HEK293 cells, above 10000 nM. In addition, the DC50 on BCR-ABL was 483 nM.

As for `Cc1nc(Nc2ncc(C(=O)Nc3c(C)cccc3Cl)s2)cc(N2CCN(C(=O)CSc3cccc4c3C(=O)N(C3CCC(=O)NC3=O)C4=O)CC2)n1` (stereo not shown) [SIAIS151110, N-(2-chloro-6-methylphenyl)-2-((6-(4-(2-((2-(2,6-dioxopiperidin-3-yl)-1,3-dioxoisoindolin-4-yl)thio)acetyl)piperazin-1-yl)-2-methylpyrimidin-4-yl)amino)thiazole-5-carboxamide], the IC50 in assay [2] is 3.2 nM; in the assay with U937 cells, above 10000 nM; in the assay on HEK293 cells, above 10000 nM. Besides, the DC50 on BCR-ABL is below 1 nM.

Consider `Cc1nc(Nc2ncc(C(=O)Nc3c(C)cccc3Cl)s2)cc(N2CCN(C(=O)CSc3cccc4c3CN(C3CCC(=O)NC3=O)C4=O)CC2)n1` (stereo not shown) [SIAIS171105, N-(2-chloro-6-methylphenyl)-2-((6-(4-(2-((2-(2,6-dioxopiperidin-3-yl)-1-oxoisoindolin-4-yl)thio)acetyl)piperazin-1-yl)-2-methylpyrimidin-4-yl)amino)thiazole-5-carboxamide], for which the IC50 in assay [2] was 5.71 nM; in the assay on U937 cells, above 10000 nM; with HEK293 cells, above 10000 nM. For the same molecule, the DC50 on BCR-ABL is 56.7 nM.

With `Cc1nc(Nc2ncc(C(=O)Nc3c(C)cccc3Cl)s2)cc(N2CCN(C(=O)CCSc3cccc4c3CN(C3CCC(=O)NC3=O)C4=O)CC2)n1` (stereo not shown) [SIAIS171106, N-(2-chloro-6-methylphenyl)-2-((6-(4-(3-((2-(2,6-dioxopiperidin-3-yl)-1-oxoisoindolin-4-yl)thio)propanoyl)piperazin-1-yl)-2-methylpyrimidin-4-yl)amino)thiazole-5-carboxamide], the IC50 is 1.74 nM in assay [2], above 10000 nM in the assay with U937 cells and above 10000 nM in the assay on HEK293 cells. For the same molecule, the DC50 at BCR-ABL worked out at 10.3 nM.

With `Cc1nc(Nc2ncc(C(=O)Nc3c(C)cccc3Cl)s2)cc(N2CCN(C(=O)CCCSc3cccc4c3CN(C3CCC(=O)NC3=O)C4=O)CC2)n1` (stereo not shown) [SIAIS171107, N-(2-chloro-6-methylphenyl)-2-((6-(4-(4-((2-(2,6-dioxopiperidin-3-yl)-1-oxoisoindolin-4-yl)thio)butanoyl)piperazin-1-yl)-2-methylpyrimidin-4-yl)amino)thiazole-5-carboxamide], the IC50 in assay [2] is 1.4 nM; in the assay on U937 cells, above 10000 nM; in the assay with HEK293 cells it was above 10000 nM. Besides, at BCR-ABL, the DC50 amounted to 5.2 nM.

`Cc1nc(Nc2ncc(C(=O)Nc3c(C)cccc3Cl)s2)cc(N2CCN(C(=O)CCCCSc3cccc4c3CN(C3CCC(=O)NC3=O)C4=O)CC2)n1` (stereo not shown) [SIAIS171108, N-(2-chloro-6-methylphenyl)-2-((6-(4-(5-((2-(2,6-dioxopiperidin-3-yl)-1-oxoisoindolin-4-yl)thio)pentanoyl)piperazin-1-yl)-2-methylpyrimidin-4-yl)amino)thiazole-5-carboxamide]: the IC50 in assay [2] was 0.54 nM; with U937 cells, above 10000 nM; in the assay on HEK293 cells, above 10000 nM. Also, the DC50 at BCR-ABL is below 1 nM.

In the case of `Cc1nc(Nc2ncc(C(=O)Nc3c(C)cccc3Cl)s2)cc(N2CCN(CCSc3cccc4c3C(=O)N(C3CCC(=O)NC3=O)C4=O)CC2)n1` (stereo not shown) [SIAIS172056, N-(2-chloro-6-methylphenyl)-2-((6-(4-(2-((2-(2,6-dioxopiperidin-3-yl)-1,3-dioxoisoindolin-4-yl)thio)ethyl)piperazin-1-yl)-2-methylpyrimidin-4-yl)amino)thiazole-5-carboxamide], the IC50 in assay [2] is 0.49 nM; with U937 cells, above 10000 nM; with HEK293 cells it was above 10000 nM. For the same molecule, the DC50 at BCR-ABL was below 1 nM.

Consider `O=C1CCC(N2C(=O)c3cccc(SCC(=O)N4CCN(C(=O)c5cc(Cc6n[nH]c(=O)c7ccccc67)ccc5F)CC4)c3C2=O)C(=O)N1` (stereo not shown) [SIAIS180063, 2-(2,6-dioxopiperidin-3-yl)-4-((2-(4-(2-fluoro-5-((4-oxo-3,4-dihydrophthalazin-1-yl)methyl)benzoyl)piperazin-1-yl)-2-oxoethyl)thio)isoindoline-1,3-dione], for which, in assay [1], the IC50 was 6.45 µM.

On to `O=C1CCC(N2C(=O)c3cccc(SCCC(=O)N4CCN(C(=O)c5cc(Cc6n[nH]c(=O)c7ccccc67)ccc5F)CC4)c3C2=O)C(=O)N1` (stereo not shown) [SIAIS180064, 2-(2,6-dioxopiperidin-3-yl)-4-((3-(4-(2-fluoro-5-((4-oxo-3,4-dihydrophthalazin-1-yl)methyl)benzoyl)piperazin-1-yl)-3-oxopropyl)thio)isoindoline-1,3-dione], for which the IC50 in assay [1] turned out to be 5.78 µM.

Take `O=C1CCC(N2C(=O)c3cccc(SCCCC(=O)N4CCN(C(=O)c5cc(Cc6n[nH]c(=O)c7ccccc67)ccc5F)CC4)c3C2=O)C(=O)N1` (stereo not shown) [SIAIS180065, 2-(2,6-dioxopiperidin-3-yl)-4-((4-(4-(2-fluoro-5-((4-oxo-3,4-dihydrophthalazin-1-yl)methyl)benzoyl)piperazin-1-yl)-4-oxobutyl)thio)isoindoline-1,3-dione]: the IC50 in assay [1] came out at 3.82 µM.

As for `O=C1CCC(N2C(=O)c3cccc(SCCCCC(=O)N4CCN(C(=O)c5cc(Cc6n[nH]c(=O)c7ccccc67)ccc5F)CC4)c3C2=O)C(=O)N1` (stereo not shown) [SIAIS180066, 2-(2,6-dioxopiperidin-3-yl)-4-((5-(4-(2-fluoro-5-((4-oxo-3,4-dihydrophthalazin-1-yl)methyl)benzoyl)piperazin-1-yl)-5-oxopentyl)thio)isoindoline-1,3-dione], the IC50 in assay [1] turned out to be 3.57 µM.

Consider `O=C1CCC(N2C(=O)c3cccc(SCCCCCC(=O)N4CCN(C(=O)c5cc(Cc6n[nH]c(=O)c7ccccc67)ccc5F)CC4)c3C2=O)C(=O)N1` (stereo not shown) [SIAIS180067, 2-(2,6-dioxopiperidin-3-yl)-4-((6-(4-(2-fluoro-5-((4-oxo-3,4-dihydrophthalazin-1-yl)methyl)benzoyl)piperazin-1-yl)-6-oxohexyl)thio)isoindoline-1,3-dione], for which the IC50 in assay [1] was found to be 2.9 µM.

Take `O=C1CCC(N2C(=O)c3cccc(SCCCCCCC(=O)N4CCN(C(=O)c5cc(Cc6n[nH]c(=O)c7ccccc67)ccc5F)CC4)c3C2=O)C(=O)N1` (stereo not shown) [SIAIS180068, 2-(2,6-dioxopiperidin-3-yl)-4-((7-(4-(2-fluoro-5-((4-oxo-3,4-dihydrophthalazin-1-yl)methyl)benzoyl)piperazin-1-yl)-7-oxoheptyl)thio)isoindoline-1,3-dione]: in assay [1], the IC50 turned out to be 2.09 µM.
